Reference: the CheMixHub viscosity set

Test: xn = mol fraction of the nth substance listed

CC(C)CO + CCCCO
101 kPa
Settings | viscosity [mPa·s]
293.15 K, x2 = 0.2 | 3.68
293.15 K, x2 = 0.4 | 3.434
293.15 K, x2 = 0.6 | 3.243
293.15 K, x2 = 0.8 | 3.078
298.15 K, x2 = 0.0982 | 3.238
298.15 K, x2 = 0.2007 | 3.111
298.15 K, x2 = 0.301 | 3.016
298.15 K, x2 = 0.4046 | 2.935
298.15 K, x2 = 0.5026 | 2.859
298.15 K, x2 = 0.6261 | 2.772
298.15 K, x2 = 0.7024 | 2.726
298.15 K, x2 = 0.8001 | 2.672
298.15 K, x2 = 0.9178 | 2.608
313.15 K, x2 = 0.2 | 2.022
313.15 K, x2 = 0.4 | 1.937
313.15 K, x2 = 0.6 | 1.872
313.15 K, x2 = 0.8 | 1.818

CCCCCOC(C)=O + Cc1ccc(O)cc1
Settings | viscosity [mPa·s]
298.15 K, 101 kPa, x2 = 0.5 | 1.169

C1CCC2=[NH+]CCCN2CC1.c1nc[n-]n1 + CS(C)=O
303.15 K, 100 kPa
Settings | viscosity [mPa·s]
x1 = 0.1001 | 3.86
x1 = 0.2 | 7.19
x1 = 0.2999 | 12.29
x1 = 0.4003 | 22.17
x1 = 0.4989 | 39.73
x1 = 0.6002 | 77.3
x1 = 0.7008 | 152.3
x1 = 0.7993 | 309.9
x1 = 0.9002 | 586.4

CCCCCOC(C)=O + CC(=O)c1ccccc1
298.15 K, 101 kPa
Settings | viscosity [mPa·s]
x2 = 0.0465 | 0.802
x2 = 0.0891 | 0.8174

C=CC(=O)OC + CCCCn1cc[n+](C)c1.F[B-](F)(F)F
303.15 K, 101 kPa
Settings | viscosity [mPa·s]
x2 = 0.5005 | 16.06
x2 = 0.9242 | 63.95

CCCCCC + CCCCCCCCCC
298.15 K, 101.33 kPa
Settings | viscosity [mPa·s]
x1 = 0.1074 | 0.7809
x1 = 0.2074 | 0.7182
x1 = 0.3029 | 0.6515
x1 = 0.4046 | 0.5846
x1 = 0.5041 | 0.5315
x1 = 0.6061 | 0.4805
x1 = 0.7053 | 0.4337
x1 = 0.8034 | 0.3791
x1 = 0.9036 | 0.3365

Cc1ccccc1O + CC(=O)O
viscosity [mPa·s], 101 kPa
Settings | x2 = 0.167 | x2 = 0.3109 | x2 = 0.4361 | x2 = 0.5461 | x2 = 0.6434 | x2 = 0.7302 | x2 = 0.8081 | x2 = 0.8783 | x2 = 0.942
298.15 K | 5.871 | 4.718 | 3.853 | 3.149 | 2.615 | 2.165 | 1.808 | 1.529 | 1.307
308.15 K | 4.539 | 3.776 | 3.151 | 2.619 | 2.204 | 1.86 | 1.595 | 1.328 | 1.139
318.15 K | 3.157 | 2.82 | 2.465 | 2.137 | 1.812 | 1.542 | 1.322 | 1.135 | 0.9519

ClCC(Cl)Cl + O=S1(=O)CCCC1
viscosity [mPa·s], 100 kPa
Settings | x2 = 0.0188 | x2 = 0.1215 | x2 = 0.2323 | x2 = 0.3466 | x2 = 0.4454 | x2 = 0.5548 | x2 = 0.6864 | x2 = 0.8249 | x2 = 0.9723
303.15 K | 1.202 | 2.163 | 3.186 | 4.237 | 5.137 | 6.131 | 7.307 | 8.528 | 9.798
308.15 K | 1.108 | 1.937 | 2.834 | 3.752 | 4.539 | 5.402 | 6.428 | 7.489 | 8.588
313.15 K | 1.024 | 1.754 | 2.548 | 3.369 | 4.069 | 4.831 | 5.738 | 6.671 | 7.649

CCOC(=O)CC + Clc1ccccc1
viscosity [mPa·s], 101.3 kPa
Settings | 308.15 K | 318.15 K
x1 = 0.0485 | 0.647 | 0.598
x1 = 0.102 | 0.636 | 0.588
x1 = 0.1976 | 0.616 | 0.57
x1 = 0.307 | 0.594 | 0.55
x1 = 0.3981 | 0.576 | 0.534
x1 = 0.4981 | 0.557 | 0.517
x1 = 0.6116 | 0.535 | 0.498
x1 = 0.7034 | 0.519 | 0.483
x1 = 0.7992 | 0.501 | 0.467
x1 = 0.9 | 0.484 | 0.451
x1 = 0.9478 | 0.476 | 0.444

CCOC(=O)CC + CCCCCC
303.15 K, 101 kPa
Settings | viscosity [mPa·s]
x1 = 0.1832 | 0.2997
x1 = 0.3971 | 0.3276
x1 = 0.4989 | 0.3451
x1 = 0.5988 | 0.3661
x1 = 0.8005 | 0.4138

CCOC(=O)CC + c1ccccc1
viscosity [mPa·s], 101.3 kPa
Settings | 308.15 K | 318.15 K
x1 = 0.0521 | 0.53 | 0.47
x1 = 0.0984 | 0.525 | 0.47
x1 = 0.2018 | 0.513 | 0.469
x1 = 0.3029 | 0.503 | 0.468
x1 = 0.4009 | 0.495 | 0.465
x1 = 0.4991 | 0.487 | 0.462
x1 = 0.5982 | 0.481 | 0.459
x1 = 0.7114 | 0.475 | 0.453
x1 = 0.8042 | 0.472 | 0.448
x1 = 0.8989 | 0.469 | 0.443
x1 = 0.92 | 0.468 | 0.441

O=C1OCCO1 + COC(=O)OC
viscosity [mPa·s], 101.3 kPa
Settings | x2 = 0.0802 | x2 = 0.166 | x2 = 0.2441 | x2 = 0.3467 | x2 = 0.4421 | x2 = 0.5442 | x2 = 0.6512 | x2 = 0.761 | x2 = 0.8513
298.15 K | 2.043 | 1.83 | 1.656 | 1.452 | 1.285 | 1.127 | 0.983 | 0.854 | 0.761
313.15 K | 1.688 | 1.506 | 1.357 | 1.184 | 1.042 | 0.91 | 0.789 | 0.682 | 0.604

CCCCCOC(C)=O + C1COCCO1
303.15 K, 101.3 kPa
Settings | viscosity [mPa·s]
x2 = 0.0981 | 0.7721
x2 = 0.2981 | 0.8134
x2 = 0.505 | 0.8719
x2 = 0.7018 | 0.9452
x2 = 0.9003 | 1.037

CCCCCCCCCCCCCC(=O)OC + CCCCCO
viscosity [mPa·s], 100 kPa
Settings | x2 = 0.1012 | x2 = 0.2002 | x2 = 0.2997 | x2 = 0.4007 | x2 = 0.4997 | x2 = 0.6007 | x2 = 0.7006 | x2 = 0.7997 | x2 = 0.9
293.15 K | 4.279 | 4.092 | 3.927 | 3.791 | 3.695 | 3.592 | 3.512 | 3.539 | 3.679
298.15 K | 3.789 | 3.61 | 3.474 | 3.371 | 3.249 | 3.162 | 3.1 | 3.1 | 3.191
303.15 K | 3.336 | 3.189 | 3.071 | 2.96 | 2.868 | 2.794 | 2.729 | 2.72 | 2.795
308.15 K | 2.932 | 2.809 | 2.701 | 2.603 | 2.524 | 2.454 | 2.397 | 2.384 | 2.429
313.15 K | 2.641 | 2.533 | 2.43 | 2.342 | 2.268 | 2.197 | 2.15 | 2.126 | 2.159
318.15 K | 2.42 | 2.318 | 2.234 | 2.142 | 2.071 | 2.006 | 1.96 | 1.938 | 1.949
323.15 K | 2.18 | 2.089 | 2.009 | 1.931 | 1.865 | 1.803 | 1.764 | 1.73 | 1.738

CC1CCCO1 (stereo unspecified) + Clc1ccccc1
298.15 K, 101 kPa
Settings | viscosity [mPa·s]
x2 = 0.0188 | 0.47
x2 = 0.0509 | 0.482
x2 = 0.103 | 0.501
x2 = 0.157 | 0.52
x2 = 0.2126 | 0.54
x2 = 0.2712 | 0.56
x2 = 0.3298 | 0.579
x2 = 0.3913 | 0.598
x2 = 0.4548 | 0.617
x2 = 0.5206 | 0.635
x2 = 0.5892 | 0.654
x2 = 0.6601 | 0.671
x2 = 0.7334 | 0.689
x2 = 0.8094 | 0.705
x2 = 0.889 | 0.722
x2 = 0.9713 | 0.737

CC(C)CO + CCC(C)O
Settings | viscosity [mPa·s]
313.15 K, 101 kPa, x2 = 0.3008 | 2.005

O=C([O-])CC(O)(CC(=O)[O-])C(=O)[O-].[NH3+]CCO.[NH3+]CCO.[NH3+]CCO + O
viscosity [mPa·s], 101 kPa
Settings | x1 = 0.0053 | x1 = 0.012 | x1 = 0.02 | x1 = 0.031 | x1 = 0.046 | x1 = 0.067 | x1 = 0.16
293.15 K | 1.211 | 1.575 | 2.21 | 3.385 | 6.303 | 12.36 | 106.7
303.15 K | 0.9345 | 1.18 | 1.608 | 2.382 | 4.312 | 8.015 | 66.19
313.15 K | 0.7529 | 0.9296 | 1.227 | 1.786 | 3.032 | 5.371 | 39.23
323.15 K | 0.6242 | 0.7501 | 0.9638 | 1.351 | 2.228 | 3.77 | 21.96

CCCCCOC(C)=O + Cc1cccc(O)c1
Settings | viscosity [mPa·s]
298.15 K, 101 kPa, x2 = 0.5 | 1.167

C=CC(=O)OCCCC + CCCCO
101.33 kPa
Settings | viscosity [mPa·s]
293.15 K, x1 = 0.0999 | 2.173
293.15 K, x1 = 0.2001 | 1.725
293.15 K, x1 = 0.2999 | 1.448
293.15 K, x1 = 0.3998 | 1.245
293.15 K, x1 = 0.5002 | 1.117
293.15 K, x1 = 0.6002 | 1.025
293.15 K, x1 = 0.7002 | 0.9619
293.15 K, x1 = 0.8 | 0.9168
293.15 K, x1 = 0.9 | 0.8882
303.15 K, x1 = 0.0999 | 1.718
303.15 K, x1 = 0.1998 | 1.385
303.15 K, x1 = 0.3006 | 1.185
303.15 K, x1 = 0.3999 | 1.035
303.15 K, x1 = 0.4992 | 0.9378
303.15 K, x1 = 0.5983 | 0.8682
303.15 K, x1 = 0.6991 | 0.8213
303.15 K, x1 = 0.8002 | 0.784
303.15 K, x1 = 0.9003 | 0.7678
313.15 K, x1 = 0.1004 | 1.291
313.15 K, x1 = 0.2001 | 1.018
313.15 K, x1 = 0.3002 | 0.8796
313.15 K, x1 = 0.3999 | 0.7948
313.15 K, x1 = 0.4994 | 0.7351
313.15 K, x1 = 0.5998 | 0.7091
313.15 K, x1 = 0.6999 | 0.6745
313.15 K, x1 = 0.7578 | 0.6676
313.15 K, x1 = 0.8999 | 0.6659

CCCCCOC(C)=O + CC(C)=O
298.15 K, 101 kPa
Settings | viscosity [mPa·s]
x2 = 0.17 | 0.688
x2 = 0.336 | 0.6224

CCCCCOC(C)=O + OCc1ccccc1
Settings | viscosity [mPa·s]
298.15 K, 101 kPa, x1 = 0.5 | 1.035

CC(C)(C)c1ccccc1 + Cc1ccccc1
303.15 K, 101.3 kPa
Settings | viscosity [mPa·s]
x2 = 0.0457 | 0.974
x2 = 0.0865 | 0.949
x2 = 0.2449 | 0.8605
x2 = 0.3937 | 0.7829
x2 = 0.4453 | 0.7568
x2 = 0.5167 | 0.7206
x2 = 0.6672 | 0.6507
x2 = 0.7678 | 0.6057
x2 = 0.8687 | 0.5626
x2 = 0.957 | 0.5317
x2 = 0.9788 | 0.5253

C=CC(=O)OC + CCCCCCCCO
viscosity [mPa·s], 101.3 kPa
Settings | x1 = 0.0847 | x1 = 0.2398 | x1 = 0.3089 | x1 = 0.4269 | x1 = 0.5391 | x1 = 0.7233 | x1 = 0.8011 | x1 = 0.8748 | x1 = 0.9408 | x1 = 0.9698
298.15 K | 5.555 | 3.533 | 2.795 | 1.948 | 1.353 | 0.857 | 0.692 | 0.566 | 0.506 | 0.47
308.15 K | 4.155 | 2.757 | 2.06 | 1.583 | 1.127 | 0.732 | 0.622 | 0.497 | 0.433 | 0.415
